This passage reports IC50 results from patent US20250304537A1 (Repare Therapeutics Inc., priority 2022, published 2025).

Like-named read-outs stand apart in the source and are kept apart here. A value given as a limit tells only on which side of the number the result lay.

Experiment [1] deals with recombinant human Myt1 (full length PKMYT1) (Homo sapiens (Human), UniProt Q99640). The experiment in a line: Recombinant human Myt1 kinase assay (ADP-Glo). The conditions noted are these: 10 μM ATP. It counts as biochemical. The procedure, abridged: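 Full-length insect-cell-expressed human Myt1 (18 nM final) was preincubated with compound (0.5% DMSO) for 15 min at 22 °C. The reaction ran with 10 μM ATP for 60 min at 30 °C in HEPES buffer with Mg2+/Mn2+ and DTT. ADP formed was read by ADP-Glo luminescence, giving IC50 and % max inhibition.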
Chain of recombinant human Myt1 (full length PKMYT1) (Q99640 whole entry): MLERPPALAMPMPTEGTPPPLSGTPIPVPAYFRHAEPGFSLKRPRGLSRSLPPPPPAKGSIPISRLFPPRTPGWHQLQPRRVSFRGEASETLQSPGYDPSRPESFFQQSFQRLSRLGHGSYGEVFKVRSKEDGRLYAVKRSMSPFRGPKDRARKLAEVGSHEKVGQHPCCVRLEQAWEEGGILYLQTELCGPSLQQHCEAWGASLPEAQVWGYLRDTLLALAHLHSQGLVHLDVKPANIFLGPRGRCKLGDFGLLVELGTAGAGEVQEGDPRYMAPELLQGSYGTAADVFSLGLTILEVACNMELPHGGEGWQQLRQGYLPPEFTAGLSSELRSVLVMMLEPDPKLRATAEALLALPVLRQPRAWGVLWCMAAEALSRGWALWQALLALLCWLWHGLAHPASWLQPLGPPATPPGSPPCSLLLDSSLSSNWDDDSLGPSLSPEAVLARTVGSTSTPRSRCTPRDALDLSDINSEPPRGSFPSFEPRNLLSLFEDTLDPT

Experiment [2] deals with PKMYT1 (CDK1 pThr14) in FUOV1 cells. The experiment in a line: PKMYT1 cell-based activity assay, CDK1 pThr14 AlphaLISA in FUOV1 cells. To be noted: read-out: FUOV-1 CDK1 pThr14 IC50. The procedure, abridged:
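FUOV1 cells were treated with PKMYT1 inhibitor for 2 h at 37 °C, then lysed. CDK1 pThr14 was measured by AlphaLISA, pairing an anti-pThr14 antibody with an anti-total CDK1 antibody (5 nM each). Signal read at 680/615 nm and used to derive IC50.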

A word on the IC50: it is the concentration at which inhibition is half-maximal.

In the case of `Cc1ccc2[nH]ncc2c1-c1nc(-c2cccnc2NC(=O)C(C)(C)C)c(F)c(C(N)=O)c1N` [Compound 905, 5-amino-3-fluoro-6-(5-methyl-1H-indazol-4-yl)-2′-pivalamido-[2,3′-bipyridine]-4-carboxamide], the 50% inhibitory concentration (IC50) in experiment [1] was less than 3 nM; in experiment [2] (2 h, 2 hours with compound), greater than 10000 nM.

For `Cc1ccc2[nH]ncc2c1-c1cc(-c2cccc(OCc3cccnc3)n2)nc(C(N)=O)c1N` [Compound 179], the half-maximal inhibitory concentration (IC50) in experiment [1] came out at 7 nM; in experiment [2] (2 h, 2 h incubation), 423 nM.

On to `Cc1ccc2[nH]ncc2c1-c1nc(-c2cc(F)ccc2NC(=O)C2(C)CC2)nc(C(N)=O)c1N` [Compound 447], for which the IC50 came to 3 nM in experiment [1] and 5 nM in experiment [2] (2 h, 2 h compound incubation).

Take `Cc1ccc2[nH]ncc2c1-c1nc(-c2cccc3c2NCCO3)nc(C(N)=O)c1N` [Compound 852]: the concentration for half-maximal inhibition (IC50) is 17 nM in experiment [1] and 502 nM in experiment [2] (2 h, 2 hours with compound).

With `CCC(COc1nccc(-c2cc(-c3c(C)ccc4[nH]ncc34)c(N)c(C(N)=O)n2)n1)OC` (stereo not drawn) [Compound 302], the 50% inhibitory concentration (IC50) in experiment [1] was found to be 4 nM; in experiment [2] (2 h, 2 h incubation) it was 23 nM.

In the case of `Cc1ccc2[nH]ncc2c1-c1nc(-c2ccccc2NC(=O)C(C)(C)C(F)(F)F)nc(C(N)=O)c1N` [Compound 402], the IC50 in experiment [1] was determined as 6 nM; in experiment [2] (2 h, 2 h compound incubation), 41 nM.

In the case of `Cc1ccc2[nH]ncc2c1-c1nc(-c2ccccc2C(F)F)nc(C(N)=O)c1N` [Compound 414], the half-inhibitory concentration (IC50) stood at 122 nM in experiment [1] and 2460 nM in experiment [2] (2 h, 2 h compound incubation).

As for `Cc1ccc2[nH]ncc2c1-c1nc(-c2ccccc2NS(=O)(=O)C2CC2)nc(C(N)=O)c1N` [Compound 426], the half-maximal inhibitory concentration (IC50) was determined as 4 nM in experiment [1] and 38 nM in experiment [2] (2 h, 2 h compound incubation).

For `Cc1ccc(O)c(C)c1-c1cc(-c2cncnc2)nc(C(N)=O)c1N` [Compound 71], the IC50 in experiment [1] amounted to 9 nM; in experiment [2] (2 h, 2 h incubation), 298 nM.

Turning to `Cc1ccc2[nH]ncc2c1-c1nc(-c2ccccc2NC2CC2)nc(C(N)=O)c1N` [Compound 476], the IC50 in experiment [1] was 3 nM; in experiment [2] (2 h, 2 h compound incubation), 25 nM.

`Cc1ccc2[nH]ncc2c1-c1nc(-c2ccccc2-c2ncc[nH]2)nc(C(N)=O)c1N` [Compound 808]: the IC50 was 14 nM in experiment [1] and greater than 10000 nM in experiment [2] (2 h, 2 hours with compound).

Take `Cc1ccc2[nH]ncc2c1-c1cc(-c2ccnc(Nc3ccncc3)n2)nc(C(N)=O)c1N` [Compound 200]: the half-inhibitory concentration (IC50) in experiment [1] turned out to be 11 nM; in experiment [2] (2 h, 2 h incubation), 154 nM.

`Cc1ccc2[nH]ncc2c1-c1cc(-c2cccc(OC[C@H](N)c3ccccc3)n2)nc(C(N)=O)c1N` [Compound 276]: the IC50 stood at 2 nM in experiment [1] and 11 nM in experiment [2] (2 h incubation).

Regarding `Cc1ccc2[nH]ncc2c1-c1cc(-c2ccnc(Oc3ccccc3)n2)nc(C(N)=O)c1N` [Compound 173], the IC50 came out at 6 nM in experiment [1] and 278 nM in experiment [2] (2 h, 2 h incubation).

Turning to `Cc1ccc(-c2nc(C(N)=O)c(N)c(-c3c(C)ccc4[nH]ncc34)n2)s1` [Compound 110], the 50% inhibitory concentration (IC50) in experiment [1] turned out to be 23 nM; in experiment [2] (2 h, 2 h incubation) it was 883 nM.

`COc1ccc(-c2cc(-c3c(C)ccc(O)c3C)c(N)c(C(N)=O)n2)nc1` [Compound 59]: the IC50 in experiment [1] worked out at 4 nM; in experiment [2] (2 h, 2 h incubation), 59 nM.

Regarding `Cc1ccc2[nH]ncc2c1-c1nc(-c2cccc(OCC#N)c2)nc(C(N)=O)c1N` [Compound 288], the half-inhibitory concentration (IC50) in experiment [1] was found to be 8 nM; in experiment [2] (2 h, 2 h incubation), 652 nM.

Turning to `Cc1ccc2[nH]ncc2c1-c1nc(-c2ccccc2NC(=O)C2(Cl)CC2)nc(C(N)=O)c1N` [Compound 441], the IC50 in experiment [1] was determined as 4 nM; in experiment [2] (2 h, 2 h compound incubation) it was 8 nM.

For `NC(=O)c1nc(-c2ccccc2)nc(-c2cccc3[nH]nc(F)c23)c1N` [Compound 123], the IC50 in experiment [1] was 99 nM; in experiment [2] (2 h, 2 h incubation), greater than 10000 nM.

Turning to `Cc1ccc(O)c(C)c1-c1cc(-c2nccc3ccccc23)nc(C(N)=O)c1N` [Compound 48], the IC50 in experiment [1] stood at 55 nM; in experiment [2] (2 h, 2 h incubation) it was 7740 nM.

With `Cc1ccc2[nH]ncc2c1-c1cc(-c2cccc(OCCN3CCOCC3)n2)nc(C(N)=O)c1N` [Compound 185], the 50% inhibitory concentration (IC50) stood at 7 nM in experiment [1] and 369 nM in experiment [2] (2 h, 2 h incubation).

On to `Cc1ccc2[nH]ncc2c1-c1nc(-c2ccccc2Nc2ccc(F)cn2)nc(C(N)=O)c1N` [Compound 450], for which the IC50 in experiment [1] turned out to be 8 nM; in experiment [2] (2 h, 2 h compound incubation) it was 121 nM.

As for `Cc1ccc(O)c(C)c1-c1cc(-c2ccnc(N)c2)nc(C(N)=O)c1N` [Compound 45], the 50% inhibitory concentration (IC50) came out at 2 nM in experiment [1] and 60 nM in experiment [2] (2 h incubation).

Regarding `NC(=O)c1nc(-c2ccccn2)cc(-c2cccc3[nH]ncc23)c1N` [Compound 70], the concentration for half-maximal inhibition (IC50) in experiment [1] was determined as 29 nM; in experiment [2] (2 h, 2 h incubation) it was 1470 nM.

For the molecule `Cc1ccc2[nH]ncc2c1-c1nc(-c2cc(F)c(F)cc2NC2CCOCC2)nc(C(N)=O)c1N` [Compound 466, 5-amino-2-(4,5-difluoro-2-((tetrahydro-2H-pyran-4-yl)amino)phenyl)-6-(5-methyl-1H-indazol-4-yl)pyrimidine-4-carboxamide], the half-maximal inhibitory concentration (IC50) in experiment [1] turned out to be 6 nM; in experiment [2] (2 h, 2 h compound incubation) it was 77 nM.

Consider `Cc1ccc2[nH]ncc2c1-c1nc(-c2cc(F)cnc2N[C@H]2CC[C@@](O)(C(F)(F)F)CC2)nc(C(N)=O)c1N` [Compound 834], for which the IC50 in experiment [1] stood at 21 nM; in experiment [2] (2 h, 2 hours with compound) it was 490 nM.

Turning to `Cc1ccc2[nH]ncc2c1-c1nc(-c2cccnc2Nc2nccn2C2CC2)nc(C(N)=O)c1N` [Compound 902], the half-maximal inhibitory concentration (IC50) in experiment [1] is 619 nM; in experiment [2] (2 h, 2 hours with compound), greater than 10000 nM.

With `Cc1nc2cccc(-c3nc(C(N)=O)c(N)c(-c4c(C)ccc5[nH]ncc45)n3)c2s1` [Compound 389], the IC50 in experiment [1] is 8 nM; in experiment [2] (2 h, 2 h incubation) it was 433 nM.

Regarding `Cc1ccc(O)cc1-c1nc(-c2ccc(Cl)cc2)nc(C(N)=O)c1N` [Compound 18], the IC50 in experiment [1] amounted to 28 nM; in experiment [2] (2 h, 2 h incubation), 3530 nM.

As to `NC(=O)c1nc(-c2ccccc2)nc(-c2cc(F)cc3[nH]ncc23)c1N` [Compound 122], the half-inhibitory concentration (IC50) in experiment [1] amounted to 137 nM; in experiment [2] (2 h, 2 h incubation), 820 nM.

`Cc1ccc(O)cc1-c1nc(-c2cccc(N3CCOCC3)c2)nc(C(N)=O)c1N` [Compound 27]: the IC50 was determined as 11 nM in experiment [1] and 319 nM in experiment [2] (2 h, 2 h incubation).

In the case of `Cc1ccc2[nH]ncc2c1-c1nc(-c2cc(C(F)(F)F)ccc2NC(=O)C2(C)CC2)nc(C(N)=O)c1N` [Compound 445], the half-maximal inhibitory concentration (IC50) in experiment [1] came to 38 nM; in experiment [2] (2 h, 2 h compound incubation), 1030 nM.

Turning to `Cc1ccc2[nH]ncc2c1-c1cc(-c2cccc(OCc3nccn3C)n2)nc(C(N)=O)c1N` [Compound 249], the half-inhibitory concentration (IC50) in experiment [1] worked out at 5 nM; in experiment [2] (2 h, 2 h incubation), 85 nM.

For the molecule `Cc1ccc2[nH]ncc2c1-c1cc(-c2ccnc(Oc3cccnc3)n2)nc(C(N)=O)c1N` [Compound 199], the IC50 in experiment [1] stood at 6 nM; in experiment [2] (2 h, 2 h incubation), 137 nM.

Turning to `Cc1ccc2[nH]ncc2c1-c1nc(-c2ccccc2N[C@H](C)C(F)(F)F)nc(C(N)=O)c1N` [Compound 430], the IC50 in experiment [1] came to 8 nM; in experiment [2] (2 h, 2 h compound incubation), 8 nM.

Take `Cc1ccc(O)cc1-c1nc(-c2ccc(C(F)(F)F)cc2)nc(C(N)=O)c1N` [Compound 7]: the IC50 in experiment [1] was 31 nM; in experiment [2] (2 h, 2 h incubation), 737 nM.

As for `Cc1ccc2[nH]ncc2c1-c1nc(-c2ccccc2NCC(F)F)nc(C(N)=O)c1N` [Compound 400, 5-amino-2-(2-((2,2-difluoroethyl)amino)phenyl)-6-(5-methyl-1H-indazol-4-yl)pyrimidine-4-carboxamide], the IC50 is 2 nM in experiment [1] and 36 nM in experiment [2] (2 h, 2 h compound incubation).

For `COc1cccc(-c2cc(-c3c(C)ccc(O)c3C)c(N)c(C(N)=O)n2)n1` [Compound 66], the values for the IC50 in experiment [1] and in experiment [2] (2 h incubation) were 2 nM and 168 nM, respectively.

Take `Cc1ccc(O)c(C)c1-c1cc(-c2cccc(=O)[nH]2)nc(C(N)=O)c1N` [Compound 72]: the IC50 in experiment [1] was determined as 10 nM; in experiment [2] (2 h, 2 h incubation), 77 nM.

On to `COC(C)(C)C(=O)Nc1ccccc1-c1nc(C(N)=O)c(N)c(-c2c(C)ccc3[nH]ncc23)n1` [Compound 420], for which the half-inhibitory concentration (IC50) in experiment [1] was 7 nM; in experiment [2] (2 h, 2 h compound incubation), 65 nM.

Take `Cc1ccc2[nH]ncc2c1-c1nc(-c2cn(CC3CC3)nc2NC2CCOCC2)nc(C(N)=O)c1N` [Compound 892]: the concentration for half-maximal inhibition (IC50) in experiment [1] came to 15 nM; in experiment [2] (2 h, 2 hours with compound), 589 nM.

As to `CC1(C(=O)Nc2cc(F)c(F)cc2-c2nc(C(N)=O)c(N)c(-c3c(Cl)ccc4[nH]ncc34)n2)CC1` [Compound 459], the IC50 stood at 9 nM in experiment [1] and 44 nM in experiment [2] (2 h, 2 h compound incubation).

For `Cc1ccc2[nH]ncc2c1-c1nc(-c2ccccc2NC(=O)C2(C)CC2(Cl)Cl)nc(C(N)=O)c1N` (stereo not drawn) [Compound 463], the IC50 was 8 nM in experiment [1] and 278 nM in experiment [2] (2 h, 2 h compound incubation).

Take `Cc1ccc2[nH]ncc2c1-c1cc(-c2ccnc(OCCOC3CC3)n2)nc(C(N)=O)c1N` [Compound 205]: the half-maximal inhibitory concentration (IC50) turned out to be 6 nM in experiment [1] and 181 nM in experiment [2] (2 h, 2 h incubation).

`Cc1ccc2[nH]ncc2c1-c1nc(-c2cn(C)nc2NC2CCCC2)nc(C(N)=O)c1N` [Compound 900]: the IC50 turned out to be 6 nM in experiment [1] and 46 nM in experiment [2] (2 h, 2 hours with compound).

For the molecule `Cc1ccc2[nH]ncc2c1-c1cc(-c2ccnc(OCCn3ccnc3)n2)nc(C(N)=O)c1N` [Compound 315], the IC50 was found to be 9 nM in experiment [1] and 349 nM in experiment [2] (2 h, 2 h incubation).

With `Cc1ccc2[nH]ncc2c1-c1nc(-c2ccc(F)cc2Nc2ccnc(C(C)C)c2)nc(C(N)=O)c1N` [Compound 619], the IC50 is 6 nM in experiment [1] and 277 nM in experiment [2] (2 h, 2 h compound incubation).

As for `Cc1ccc2[nH]ncc2c1-c1nc(-c2ccccc2N[C@@H](C)C(F)(F)F)nc(C(N)=O)c1N` [Compound 429], the IC50 in experiment [1] is 4 nM; in experiment [2] (2 h, 2 h compound incubation) it was 36 nM.
